Source: patent US20120021077A1, “SYNERGISTIC HERBAL COMPOSITION FOR TREATMENT OF RHEUMATIC AND MUSCULO-SKELETAL DISORDERS (RMSDS)” (priority 2007, published 2012)
pIC50: −log10 of the molar value. Read-outs that look alike come from different tables or passages of the source.

Assays:
symptomatic OA knees = experiment: Phase II 24-week comparator controlled trial of equivalence; assay type: in vivo, patients; design: W_DIFF, mean change between baseline and completion (Mean ± SD) / W_TOTAL, mean change between baseline and completion (Mean ± SD) / W_PAIN, mean change between baseline and completion (Mean ± SD) / W_STIFF, mean change between baseline and completion (Mean ± SD): scale not given here; conditions: 24 weeks
Excerpt: • Phase II, Randomized, double blind, comparator (Celecoxib & Glucosamine) controlled, multicentric trial of equivalence. • Study Duration-24 weeks • Sample size (statistically powered 80% with α<0.05)—440 patients with symptomatic OA knees • 4 arm-2 Ayurvedic Interventions (C, C+) Celecoxib & Glucosamine, parallel efficacy study • 110 patients in each arm • No rescue medication permitted

[1] = test system: human OA cartilage explants; experiment: Glycosaminoglycan (GAG) release from human OA cartilage explants; assay type: cell-based; conditions: for Percent control GAG release: control = 100%
Procedure: Aqueous extracts of each capsule were freshly prepared as required. Contents of each capsule were solubilized in distilled water (10 mG/mL) by limited autoclaving. Each extract was filter sterilized prior to addition to cartilage explants at the required final concentration. This method of herbal extract preparation gave reproducible sterility and biological activity (Sumantran et al, 2007).
Patients (age 55-75 years) suffered from chronic osteoarthritis (OA) for 5-15 years prior to knee replacement surgery. Cartilage integrity was recorded by macroscopic and microscopic examination, using the Outerbridge scale. Only non-calcified, grade 1-2 articular cartilage from the lateral femoral condyles was used (Outerbridge 1961).
OA cartilage explants were cultured as described earlier (Sumantran et al, 2007). Briefly, explants were treated for 24 hours with/without sterile aqueous extracts of each capsule, and re-fed with growth media without herbal extract every two days for eight days. Conditioned media (CM) samples from each explant were collected prior to each re-feed. All CM samples per OA patient were thawed and assayed for GAG and NO levels simultaneously. Aggrecan assays were done after analysis of the GAG release data.
Total GAG levels in CM samples were measured by the dimethylmethylene blue assay using Chondroitin sulphate as a standard (Hoemann et al, 2002). NO levels in CM samples were estimated using the Griess reagent.
GAG content is expressed as microgram equivalents of Chondroitin sulphate. NO is expressed in micromoles/mG of explant/mL of CM. Units of Aggrecan are micrograms/mG of explant/mL of CM. Each marker is measured at each time point for each CM sample derived from each patient.
Levels of GAG, NO, or aggrecan levels in CM samples from explants at each time, point, per patient, treated with/without drug; were tested for statistical significance at the 95% confidence level using the Students 2 tailed t-test for paired samples. We calculated the effect of drug extracts in each CM sample, at each time point, per patient sample; using the ratio shown below:
Long-term versus Short-term activity: Long-term chondroprotective or anti-inflammatory activity is the ability of a drug to cause a statistically significant decrease in levels of GAG, aggrecan, or NO release by OA cartilage explants, relative to controls. This effect must be observed for at least 3 of the 4 time points during in vitro culture. Short-term activity is similar, but is detected at only 1 or 2 of the 4 time points tested.
In explant model of OA cartilage damage, GAG released by cartilage explants for 5 time points after a 24 hour drug treatment was measured. The effect on GAG release from cartilage explants of six OA patients treated with/without aqueous extracts of formulations C and C+G (100 microg/mLeach) was studied. […] Glucosamine and celecoxib each caused a statistically significant, 25% decrease in GAG release at time point 4, compared to controls.

[2] = test system: Carrageenan induced rat paw edema; experiment: Carrageenan induced rat paw edema (acute anti-inflammatory); assay type: in vivo, wistar rats; conditions: anti-inflammatory studies, model not specified
Procedure: (§1) Analgesic and anti-inflammatory activity studies for crude drug powders or extracts and formulations there off were carried out in known animal models. Central (formalin-induced model) and peripheral (acetic acid induced model) analgesic activities were studied in albino mice, while wistar rats were used for acute (carrageenan induced paw edema model) and sub-acute (turpentine oil-induced granuloma pouch model) anti-inflammatory activity. Suitable positive and negative controls were used for the studies. The data obtained is statistically significant (P value<0.05) and reproducible.
Various doses of test sample (100, 200 and 400 mg/Kg p.o.) and standard Indomethacin (10 mg/kg p.o.) were administered to different groups of rats. Acute inflammation was induced half an hour after the above treatment by injection of 0.1 ml of freshly prepared 1% (in water) suspension of Carrageenan sodium in sub-planter region of rat right hind paw. Paw volume was measured by plethysmographic method initially and then at 1, 2, 3, 4, 24, 48 and 72 hrs after carrageenan injection.

[3] = test system: Acetic acid induced writhing in mice; experiment: Acetic acid induced writhing (peripheral analgesic model); assay type: in vivo, albino mice
Procedure: as §1
The total number of writhings following intra-peritoneal administration of 0.6% acetic acid, 10 ml/Kg body weight was recorded for 20 minutes, starting 10 minutes after injection. The animals were pre-treated with test samples (100, 200 and 400 mg/Kg p.o.) 30 minutes prior to above treatment, simultaneously using Aspirin (30 mg/kg p.o.) as a positive control.

OA cartilage explants = experiment: Nitric oxide (NO) release by OA cartilage explants; assay type: cell-based, human
[4] = test system: symptomatic knee osteoarthritis; experiment: 16-week randomized double blind placebo and comparator controlled trial (NMITLI OA stage I/2); assay type: in vivo, patients
Procedure: NMITLI OA stage I/2: The said formulation was evaluated in a randomized double blind placebo controlled, multicentric 16 week clinical trial in 245 patients with symptomatic knee osteoarthritis. This was This was a 7 arm exploratory study, aimed to evaluate the efficacy and safety of 5 multiplant formulations using Shunthi-Guduchi as a common platform formulation in all. Glucosamine was the positive comparator.
Glucosamine was the positive comparator in this study.
The clinical trials are conducted on the following basis: • Randomized, Double Blind, parallel efficacy, Placebo & Comparator controlled study • 245 patients in a 7 arm (5 ayurvedic arms coded as A-E, placebo-1, Glucosamine-1) study of 16 weeks duration. • 35 patients in each arm • Monitored pain rescue medication (oral paracetamol) permitted on SOS basis • Intent to treat analysis with last observation carried forward • All arms well-matched at baseline for demographics and efficacy.

[5] = test system: human OA cartilage explants; experiment: Aggrecan release from human OA cartilage explants; assay type: cell-based
Excerpt: The kit uses a mixture of monoclonal antibodies to different epitopes of aggrecan, thereby ensuring sensitive and rapid estimation of aggrecan.

[6] = test system: active Rheumatoid arthritis (RA); experiment: NMITLI RA stage I/1, 24-week study; assay type: in vivo, patients; conditions: week 24
Excerpt: NMITLI RA STAGE I/1: A randomized double blind comparator controlled parallel efficacy multicentric 24-week study in patients with active Rheumatoid arthritis (RA). In this study, formulation B and a proprietary ayurvedic formulation were compared to Hydroxychloroquine (HCQS), which is a popular DMARD (Disease Modifying Anti Rheumatoid Drug) in modern medicine rheumatology. As a complex painful inflammatory polyarticular disease, several efficacy variables, both clinical and laboratory were used to evaluate efficacy—Joint Counts for pain/tenderness and swelling, pain VAS, Patients Global assessments by the patient and physician, Health Assessment Questionnaire (a validated instrument for functional ability for Indian use), ESR, CRP and cytokines markers.
At baseline, all the groups were matched well in several demographic and efficacy measures. […] The overall safety of Ayurvedic formulations was better than HCQS.

[7] = test system: arachidonic acid (AA) induced platelet activation in human whole blood; conditions: read-out: anti-platelet activity IC(50); cited from earlier work
mouse bone marrow = conditions: test drugs 2000 mg/kg oral; cyclophosphamide 75 mg/kg i.p.
Procedure: Assessment of genotoxicity using mouse bone marrow micronucleus test and Salmonella reverse mutation test was carried out according to OECD guidelines No. 474 and 471 respectively.
Genotoxicity study was carried out using mammalian bone marrow micronucleus test with the limit test at a single dose level of 2000 mg/kg body weight. The test drug was suspended in 1% CMC (carboxy methyl cellulose) and administered orally to the experimental animals. Control animals received 1% CMC alone. […] Treatment was given for two consecutive days at 0 h and 24 h. […] All the mice were sacrificed at 6th hr. after the last treatment (30th hr. after first dose) and femur bones were excised and bone marrow contents were flushed with fetal calf serum. Bone marrow cells were centrifuged spread as a smear on glass slide and stained using Giemsa stain and May-Grunwald stain. […] Minimum 2000 PCEs were scored from each animal. All the slides were coded prior to scoring and decoded after completion of scoring.

[8] = time point 3, controls set at 100%
[9] = time point 4, controls set at 100%

## Cc1ccc(-c2cc(C(F)(F)F)nn2-c2ccc(S(N)(=O)=O)cc2)cc1 [Celecoxib]
Symptomatic OA knees
  PainVAS, mean change between baseline and completion (Mean ± SD): −1.82 ± 1.95
  W_DIFF, mean change between baseline and completion (Mean ± SD): −6.93 ± 9.88
  W_PAIN, mean change between baseline and completion (Mean ± SD): −1.89 ± 3.01
  W_STIFF, mean change between baseline and completion (Mean ± SD): −0.34 ± 1.91
  W_TOTAL, mean change between baseline and completion (Mean ± SD): −9.17 ± 13.05
[1]; time point 1, 100 microg/mL
  Percent control GAG release: 90.24 ± 25.71%
[1]; time point 2, 100 microg/mL
  Percent control GAG release: 84.87 ± 28.54%
[1]; time point 3, 100 microg/mL
  Percent control GAG release: 87.83 ± 28.99%
[1]; time point 4
  decrease in GAG release compared to controls: 25%
[1]; time point 4, 100 microg/mL
  Percent control GAG release: 74.81 ± 31.83%
[1]; time point 5, 100 microg/mL
  Percent control GAG release: 89.42 ± 31.98%
[2]
  minimum dose with significant anti-inflammatory activity: 200 mg/kg
[3]
  dose with significant peripheral analgesic activity: 400 mg/kg

## N[C@H]1C(O)O[C@H](CO)[C@@H](O)[C@@H]1O (stereo partly drawn) [Glucosamine]
OA cartilage explants
  Nitric oxide (NO) release, decrease: No significant
OA cartilage explants; listed as gulosamine
  Nitric oxide (NO) release, decrease: did not significantly decrease
[4]; all visits
  Daily consumption Paracetamol, Mean, AVR_TOTAL: 1.7950
[4]; baseline
  PATG (1-5 grades), baseline mean: 3.52 grades
  PainVAS (0-100 mm), baseline mean: 64.8 mm
  WOMAC Pain (0-20 score), baseline mean: 8.0 score
[4]; over 16 weeks
  PATG, mean of percent change from baseline: 15.4%
  PainVAS, mean of percent change from baseline: 21%
  WOMAC Pain, mean of percent change from baseline: 14.2%
[4]; visit 3
  Daily consumption Paracetamol, Mean, AVR_PAR3: 2.0110
[4]; visit 4
  Daily consumption Paracetamol, Mean, AVR_PAR4: 1.9038
[4]; visit 5
  Daily consumption Paracetamol, Mean, AVR_PAR5: 1.9863
[4]; visit 6
  Daily consumption Paracetamol, Mean, AVR_PAR6: 1.8846
[4]; visit 7
  Daily consumption Paracetamol, Mean, AVR_PAR7: 1.3516
Symptomatic OA knees
  PainVAS, mean change between baseline and completion (Mean ± SD): −2.45 ± 2.23
  W_DIFF, mean change between baseline and completion (Mean ± SD): −8.12 ± 10.89
  W_PAIN, mean change between baseline and completion (Mean ± SD): −2.72 ± 3.26
  W_STIFF, mean change between baseline and completion (Mean ± SD): −0.49 ± 1.61
  W_TOTAL, mean change between baseline and completion (Mean ± SD): −11.33 ± 13.75
[5]
  Aggrecan (AGG) release, decrease: Significant
[5]; time point 3
  mean decrease of Aggrecan release relative to control explants: 34%
[5]; [8]
  levels of aggrecan released compared to controls (FIG. 1): 66.13±21.81%
[5]; time point 4, 5 patients
  Aggrecan release by cartilage explants: not significantly decreased
[5]; [9]
  levels of aggrecan released compared to controls (FIG. 2): 86.07±21.71%
[1]; long term = at least 3 of 4 time points, short term = 1 or 2
  Glycosaminoglyan (GAG) release, decrease: Short term
[1]; time point 1, 100 microg/mL
  Percent control GAG release: 118.96 ± 34.74%
[1]; time point 2, 100 microg/mL
  Percent control GAG release: 91.70 ± 16.55%
[1]; time point 3
  mean decrease of GAGs release relative to control explants: 26%
[1]; time point 3, 100 microg/mL
  Percent control GAG release: 86.52 ± 19.36%
[1]; time point 3, both markers
  mean decrease in levels of GAG and aggrecan release relative to controls: 25-35%
[1]; [8]
  levels of GAG released compared to controls (FIG. 1): 73.72±9.69%
[1]; time point 4
  decrease in GAG release compared to controls: 25%
  mean decrease of GAGs release relative to control explants: 20%
[1]; time point 4, 100 microg/mL
  Percent control GAG release: 76.01 ± 19.96%
[1]; [9]
  levels of GAG released compared to controls (FIG. 2): 81.38±14.35%
[1]; time point 5, 100 microg/mL
  Percent control GAG release: 87.15 ± 20.83%
[2]
  minimum dose with significant anti-inflammatory activity: devoid of any anti-inflammatory activity
[3]
  dose with significant peripheral analgesic activity: 400 mg/kg

## CCN(CCO)CCCC(C)Nc1ccnc2cc(Cl)ccc12 (stereo not drawn) [HCQS, Hydroxychloroquine]
[6]
  efficacy in RA, individual group analysis: several significant improvements

## CC(=O)Oc1ccccc1C(=O)O [aspirin]
[7]
  pIC50: 4.70

## O=P1(N(CCCl)CCCl)NCCCO1 (stereo not drawn) [cyclophosphamide]
Mouse bone marrow
  micronucleus induction / mutagenic effect: significant increase in percent micronuclei: PCE ratio
